Legend:
Type in all cases: in vivo
[1] = tested on: Veronica persica; test: Pre-emergence herbicidal efficacy, VERPE; details: Table B1, application rate 320 g/ha, scored visually after about 3 weeks vs untreated controls
In short: (§1)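 Seeds were sown in pots and covered with soil; WP or EC formulations were sprayed onto the soil surface as aqueous suspension or emulsion with 0.5% additive. Pots were kept in a greenhouse, and after about 3 weeks damage was rated visually as percent versus untreated controls (100% = plants dead, 0% = like control).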

[2] = tested on: Lolium rigidum; test: Post-emergence herbicidal efficacy, LOLRI; details: application rate 320 g/ha, rated visually after about 3 weeks
Protocol: (§2) C.2 Post-Emergence Herbicidal Action and Crop Plant Compatibility
(§3) Seeds of monocotyledonous and dicotyledonous weeds and crop plants are placed in sandy loam in plastic or organic planting pots, covered with soil and cultivated in a greenhouse under controlled growth conditions. 2 to 3 weeks after sowing, the test plants are treated at the one-leaf stage. The compounds of the invention, formulated in the form of wettable powders (WP) or as emulsion concentrates (EC), are then sprayed onto the green parts of the plants as aqueous suspension or emulsion with addition of 0.5% additive at a water application rate of […] (converted). After the test plants had been kept in the greenhouse under optimum growth conditions for about 3 weeks, the activity of the preparations is rated visually in comparison to untreated controls. For example, 100% activity=the plants have died, 0% activity=like control plants.

[3] = tested on: Abutilon theophrasti; test: Pre-emergence herbicidal efficacy, ABUTH; details: Table B1, application rate 320 g/ha, scored visually after about 3 weeks vs untreated controls
In short: as §1

[4] = tested on: Stellaria media; test: Post-emergence herbicidal efficacy, STEME; details: application rate 320 g/ha, rated visually after about 3 weeks
Source text: (§4) ABUTH: Abutilon theophrasti ALOMY: Alopecurus myosuroides AMARE: Amaranthus retroflexus AVEFA: Avena fatua CYPES: Cyperus esculentus ECHCG: Echinochloa crus-galli LOLMU: Lolium multiflorum MATIN: Matricaria inodora PHBPU: Ipomoea purpurea POLCO: Polygonum convolvulus SETVI: Setaria viridis STEME: Stellaria media VERPE: Veronica persica VTOTR: Viola tricolor
as §2, §3

[5] = tested on: Veronica persica; test: Post-emergence herbicidal efficacy, VERPE; details: application rate 320 g/ha
Source text: as §4, §2, §3

[6] = tested on: Echinochloa crus-galli; test: Post-emergence herbicidal efficacy, ECHCG; details: application rate 320 g/ha, rated visually after about 3 weeks
Source text: as §4, §2, §3

[7] = tested on: Matricaria inodora; test: Pre-emergence herbicidal efficacy, MATIN; details: Table B1, application rate 320 g/ha, scored visually after about 3 weeks vs untreated controls
In short: as §1

[8] = tested on: Lolium rigidum; test: Pre-emergence herbicidal efficacy, LOLRI; details: Table B1, application rate 320 g/ha, scored visually after about 3 weeks vs untreated controls
In short: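 Seeds sown in pots and covered with soil. Greenhouse-grown about 3 weeks, then visually scored as % activity vs untreated controls (100% = dead, 0% = like control).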

[9] = tested on: Amaranthus retroflexus; test: Post-emergence herbicidal efficacy, AMARE; details: application rate 320 g/ha
Source text: as §4, §2, §3

[10] = tested on: Amaranthus retroflexus; test: Pre-emergence herbicidal efficacy, AMARE; details: Table B1, application rate 320 g/ha, scored visually after about 3 weeks vs untreated controls
In short: as §1

[11] = tested on: Setaria viridis; test: Pre-emergence herbicidal efficacy, SETVI; details: Table B1, application rate 320 g/ha, scored visually after about 3 weeks vs untreated controls
In short: as §1

[12] = tested on: Polygonum convolvulus; test: Pre-emergence herbicidal efficacy, POLCO; details: Table B1, application rate 320 g/ha, scored visually after about 3 weeks vs untreated controls
In short: as §1

[13] = tested on: Viola tricolor; test: Pre-emergence herbicidal efficacy, VIOTR; details: Table B1, application rate 320 g/ha, scored visually after about 3 weeks vs untreated controls
In short: as §1

[14] = tested on: Stellaria media; test: Pre-emergence herbicidal efficacy, STEME; details: Table B1, application rate 320 g/ha, scored visually after about 3 weeks vs untreated controls
In short: as §1

[15] = tested on: Viola tricolor; test: Post-emergence herbicidal efficacy, VIOTR; details: application rate 320 g/ha, rated visually after about 3 weeks (Table B5)
Source text: as §4, §2, §3

[16] = tested on: Echinochloa crus-galli; test: Pre-emergence herbicidal efficacy, ECHCG; details: Table B1, application rate 320 g/ha, scored visually after about 3 weeks vs untreated controls
In short: as §1

[17] = tested on: harmful plants; test: Post-emergence herbicidal action; details: applied post-emergence
Protocol: as §2, §3

[18] = tested on: Abutilon theophrasti; test: Post-emergence herbicidal efficacy, ABUTH; details: Table B6, one-leaf stage, application rate 320 g/ha, rated visually after about 3 weeks vs untreated controls
Source text: as §4, §2, §3

[19] = tested on: Setaria viridis; test: Post-emergence herbicidal efficacy, SETVI; details: Table B6, one-leaf stage, application rate 320 g/ha, rated visually after about 3 weeks vs untreated controls
Source text: as §4, §2, §3

[20] = rated visually after about 3 weeks (Table B5)
[21] = rated visually after about 3 weeks
[22] = Table B6, one-leaf stage, rated visually after about 3 weeks vs untreated controls

SMILES | Herbicidal efficacy against VERPE [1] | Herbicidal efficacy against LOLRI [2] | Herbicidal efficacy against ABUTH [3] | Herbicidal efficacy against STEME [4] | Herbicidal efficacy against VERPE [5, 20] | Herbicidal efficacy against ECHCG [6] | Herbicidal efficacy against MATIN [7] | Herbicidal efficacy against LOLRI [8] | Herbicidal efficacy against AMARE [9, 21] | Herbicidal efficacy against AMARE [10] | Herbicidal efficacy against SETVI [11] | Herbicidal efficacy against POLCO [12] | Herbicidal efficacy against VIOTR [13] | Herbicidal efficacy against STEME [14] | Herbicidal efficacy against VIOTR [15] | Herbicidal efficacy against ECHCG [16] | also measured
Cc1ccc2c(c1)C(Nc1nc3n(n1)CCCCS3)C(C)C2 (stereo not drawn) [Example I-354] | 100% | 100% | 100% | 100% | 100% | 100% | 100% | 100% | 80% | 100% | 100% | 100% | 100% | 100% | 80% | 100% | 
Cc1ccc2c(c1)C(Nc1nc3n(n1)CCCCS3(=O)=O)CC2 (stereo not drawn) [Example I-232] | 100% | 90% | 100% | 100% | 90% | 80% | 100% | 100% | 100% | 100% | 100% | 100% | 100% | 100% | 90% | 100% | 
Cc1ccc2c(c1)[C@H](Nc1nc3n(n1)CCCCS3)CC2 [Example I-353] | 100% | 100% | 100% | 100% | 90% | 100% | 100% | 100% | 90% | 100% | 100% | 100% | 100% | 100% | 80% | 100% | herbicidal efficacy against harmful plants [17]: very good herbicidal efficacy
Cc1ccc2c(c1)C(Nc1nc3n(n1)CCCCS3)CCC2 (stereo not drawn) [Example I-214] | 100% |  | 100% |  |  |  | 100% | 100% |  | 100% | 100% | 100% | 100% | 100% |  | 100% | Herbicidal efficacy against ABUTH [18]: 80%; Herbicidal efficacy against VERPE [5, 22]: 100%; Herbicidal efficacy against AMARE [9, 22]: 80%; Herbicidal efficacy against SETVI [19]: 100%
Cc1ccc2c(c1)C(Nc1nc3n(n1)CCCCS3)CC2 (stereo not drawn) [Example I-248] | 100% | 100% | 100% | 100% | 90% | 100% | 100% | 100% | 90% | 100% | 100% | 100% | 100% | 100% | 90% | 100% | herbicidal efficacy against harmful plants [17]: very good herbicidal efficacy
c1ccc2c(c1)CCC[C@H]2Nc1nc2n(n1)CCCCS2 [Example I-355] | 100% |  | 100% | 100% | 80% | 100% | 100% | 80% | 80% | 100% | 100% | 100% | 100% | 100% | 80% | 100% | 
CC(=O)N1CCn2nc(N[C@@H]3CCCc4ccc(C)cc43)nc2C1 [Example I-180] | 100% |  | 100% |  |  |  | 100% | 100% |  | 100% | 100% | 100% | 100% | 100% |  | 100% | Herbicidal efficacy against ABUTH [18]: 80%; Herbicidal efficacy against VERPE [5, 22]: 80%; Herbicidal efficacy against AMARE [9, 22]: 80%; Herbicidal efficacy against SETVI [19]: 80%
Cc1ccc2c(c1)C(Nc1nc3n(n1)CCCCS3(=O)=O)C(C)C2 (stereo not drawn) [Example I-366] | 100% | 90% | 100% | 90% |  | 100% | 100% | 100% | 80% | 100% | 100% | 100% | 100% | 100% |  | 100% | 

Source: patent US20200331904A1, “3-AMINO-[1,2,4]-TRIAZOLE DERIVATIVES AND THEIR USE FOR CONTROLLING UNDESIRED PLANT GROWTH” (Bayer CropScience Aktiengesellschaft, priority 2017, published 2020)
